The results in this text go back to paper PMC6643147 (International Journal of Biological Sciences, 2019).

In the assay the target is PI3Kα (Homo sapiens, UniProt P42336). Description: cell-free ADP-Glo kinase assay with recombinant PI3Kα and poly-EY substrate. The class given is biochemical. A general note: ADP-Glo first removes unused ATP, then detects ADP through luciferase.

As usually defined, the IC50 is the point on the concentration scale where inhibition reaches its midpoint.

Chain of PI3Kα (P42336 whole entry): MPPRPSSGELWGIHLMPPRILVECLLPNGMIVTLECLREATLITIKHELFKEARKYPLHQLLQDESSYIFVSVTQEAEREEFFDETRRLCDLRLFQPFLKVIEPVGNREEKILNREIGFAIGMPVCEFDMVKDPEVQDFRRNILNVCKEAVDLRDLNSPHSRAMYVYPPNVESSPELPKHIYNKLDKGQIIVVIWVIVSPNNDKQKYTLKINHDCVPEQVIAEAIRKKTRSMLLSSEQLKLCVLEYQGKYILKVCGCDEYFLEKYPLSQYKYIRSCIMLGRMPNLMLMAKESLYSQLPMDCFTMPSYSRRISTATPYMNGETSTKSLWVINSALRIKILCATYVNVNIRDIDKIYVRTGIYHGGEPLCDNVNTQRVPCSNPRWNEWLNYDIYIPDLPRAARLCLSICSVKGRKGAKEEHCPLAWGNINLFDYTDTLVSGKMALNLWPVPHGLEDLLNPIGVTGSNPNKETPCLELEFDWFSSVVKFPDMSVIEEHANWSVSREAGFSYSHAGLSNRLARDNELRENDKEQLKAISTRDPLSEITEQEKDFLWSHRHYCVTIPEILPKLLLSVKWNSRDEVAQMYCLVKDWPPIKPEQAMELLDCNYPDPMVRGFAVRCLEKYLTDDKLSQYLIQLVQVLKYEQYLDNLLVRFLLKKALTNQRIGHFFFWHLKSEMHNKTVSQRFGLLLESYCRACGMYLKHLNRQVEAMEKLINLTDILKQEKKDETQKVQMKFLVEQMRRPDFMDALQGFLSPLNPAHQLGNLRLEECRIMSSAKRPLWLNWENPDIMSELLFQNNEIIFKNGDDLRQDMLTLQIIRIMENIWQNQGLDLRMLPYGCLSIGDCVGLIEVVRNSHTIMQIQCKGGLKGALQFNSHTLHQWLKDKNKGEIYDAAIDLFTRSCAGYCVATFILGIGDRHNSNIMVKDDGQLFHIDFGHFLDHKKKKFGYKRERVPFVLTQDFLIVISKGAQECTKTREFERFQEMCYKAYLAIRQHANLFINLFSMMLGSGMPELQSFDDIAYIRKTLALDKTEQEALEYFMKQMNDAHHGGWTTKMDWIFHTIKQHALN
Chain of PI3Kα (P27986 2-724, further chain): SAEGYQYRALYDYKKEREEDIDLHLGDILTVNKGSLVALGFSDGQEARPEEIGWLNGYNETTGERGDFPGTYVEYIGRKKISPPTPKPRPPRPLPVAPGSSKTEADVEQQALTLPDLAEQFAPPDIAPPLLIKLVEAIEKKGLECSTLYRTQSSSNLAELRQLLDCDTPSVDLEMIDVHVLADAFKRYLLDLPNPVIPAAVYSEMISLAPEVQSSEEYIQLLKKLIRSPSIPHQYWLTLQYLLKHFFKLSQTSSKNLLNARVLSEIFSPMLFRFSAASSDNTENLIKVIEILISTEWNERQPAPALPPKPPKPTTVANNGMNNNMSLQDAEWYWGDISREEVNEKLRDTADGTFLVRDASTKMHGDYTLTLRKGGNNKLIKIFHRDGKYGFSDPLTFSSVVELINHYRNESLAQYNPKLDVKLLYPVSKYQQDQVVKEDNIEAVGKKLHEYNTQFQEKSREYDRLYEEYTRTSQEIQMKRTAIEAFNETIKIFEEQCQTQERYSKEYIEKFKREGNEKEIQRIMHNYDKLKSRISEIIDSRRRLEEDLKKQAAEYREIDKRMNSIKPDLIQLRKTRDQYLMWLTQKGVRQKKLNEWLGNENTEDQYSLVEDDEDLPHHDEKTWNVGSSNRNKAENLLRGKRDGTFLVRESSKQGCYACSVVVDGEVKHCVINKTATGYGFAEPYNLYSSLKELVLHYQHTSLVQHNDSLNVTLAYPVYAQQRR

In the case of `OCCN1CCN(CC/C=C2/c3ccccc3Sc3ccc(C(F)(F)F)cc32)CC1` [flupentixol], the IC50 amounted to 127 ± 5.87 nM.
